Measured values reported in patent publication US20120121692A1, “COMPOUNDS AND COMPOSITIONS COMPRISING CDK INHIBITORS AND METHODS FOR TREATING CANCER” (SHANDONG UNIVERSITY, priority 2009, published 2012).

Assays:
[1] = tested on: HCT116 cells; experiment: MTT cytotoxicity screening, human colon cancer cell line HCT116; format: cell-based; conditions: Homo sapiens, HCT-116, 48 hrs incubation, absorbance 490 nm, primary screening, read-out: IC50
Source text: Human colon cancer cell line HCT116 can be used for the preliminary cytotoxicity screening of the disclosed compounds as disclosed by Mosmann, T., “Rapid colorimetric assay for cellular growth and survival: application to proliferation and cytotoxicity assays.” J. Immunol. Methods, (1983) 65(1-2): p. 55-63 referred to herein further as the “MTT test” which is incorporated herein by reference in its entirety.
The disclosure of Mosmann recites the following. “MTT 93-(4,5-dimethylthirazol-2-yl)-2,5-diphenyl tetrazolium bromide; Sigman catalog no. M2128) was dissolved in PBS at 5 mg/ml and filtered to sterilize and remove a small amount of insoluble residue present in some batches of MTT. At the times indicated below, stock MTT solution (10 ml per 100 ml) was added to all wells of an assay, and plates were incubated at 37° C. for 4 h. Acid-siopropanol (100 ml of 0.04 N HCl in isopropanol) was added to all wells and mixed thoroughly to dissolve the dark blue crystals. After a few minutes at room temperature to ensure that all crystals were dissolved, the plates were read o a Dynatech MR580Microelisa reader, using a test wavelength of 570 nm, a reference wavelength of 630 nm, and a calibration setting of 1.99 (or 1.0 if the samples were strongly colored). Plates were normally read within 1 h of adding the isopropanol.
“Our final procedure was to add 0.01 ml MTT (5 mg/ml in phosphate-buffered saline) to 0.1 ml cells in growth medium. After 4 h at 37° C. for MTT cleavage, the formazan product was solublilized by the addition of 0.1 ml 0.04 N HCl in isopropanol. Optical density was measured on a Dynatech MR 580 plate reader, using a reference wavelength of 630 nm and a test wavelength of 570 nm.” 3-(4,5-Dimethylthiazol-2-yl)-2,5-diphenyltetrazolium bromide, a tetrazole, can pass through cellular membrane to enter into cells. This tetrazole may be reduced to the purple formazan in the mitochondria of living cells, which can diffuse out to form crystals. This crystal can be dissolved in the dimethyl sulfoxide to form a colored solution. The absorbance of this colored solution can be quantified by measuring at certain wavelength (490 nm) using a spectrophotometer. The quantity of the formazan crystal is proportional to the number of living cells.
As used herein, cells were cultured in McCoy's 5A medium supplemented with 10% heat-inactivated Fetal Bovine Serum (FBS) and 5% Penicillin/Streptomycin solution. McCoy's 5A, 1× (Iwakata & Grace modified) medium with L-Glutamine, DPBS, 1× w/o Ca and Mg, Penicillin/Streptomycin solution, Trypsin EDTA, 1× and PBS, 1× w/o Ca and Mg were purchased from Mediatech, Inc. (USA). FBS was purchased from Hyclone (USA).
The cytotoxicity of the compounds was estimated using the MTT assay. A 96-well plate was seeded with 100 μl medium containing HCT116 cells in suspension at a density of 2.5×10^4 cells/ml. After 24 hours of incubation, the cells were treated with the compounds, which were dissolved in DMSO (dimethyl sulfoxide) as stock solutions and diluted to final concentrations of 100 μM, 50 μM, 25 μM, 12.5 μM, 6.25 μM & 1 μM (for compounds tested in the micromolar concentrations) and 10 μM, 1 μM, 500 nM, 250 nM, 125 nM & 62.5 nM (for compounds tested in the nanomolar concentration range) using medium containing 0.1% DMSO. The final concentration of DMSO in the culture medium was maintained at 0.1%-0.001% (v/v). After 48 hrs incubation in the presence of test compounds, the spent medium was removed and the wells were washed twice with 100 μL of PBS solution. 100 μL of fresh medium and 10 μL of MTT (5 mg/ml in PBS) was added to the wells and incubated at 37° C. in dark for 4 hrs. The formazan product was dissolved by adding 100 μL of 100% DMSO after removing the medium from each well and was stabilized by adding 12.5 μL of Sorensen's glycine buffer to each well. […]

Compound | IC50 [1] | melting point
COc1cccc(/C=C/C(=O)c2c(OC)cc(OC)c(CN3CCOCC3)c2O)c1 [Compound D6, (E)-3-(3-methoxyphenyl)-1-(2-hydroxy-4,6-dimethoxy-3-(morpholinemethyl)-phenyl)-2-propylene-1-one] | 2.17 µM | 169 to 170 °C
COc1ccc(/C=C/C(=O)c2c(OC)cc(OC)c(CN3CCCCC3)c2O)cc1 [Compound C2, (E)-1-(2-hydroxy-4,6-dimethoxy-3-(piperidin-1-ylmethyl)phenyl)-3-(4-methoxyphenyl)-2-propylene-1-one] | 5.46 µM | 129 to 130 °C
COc1cc(OC)c(C2=CCN(C)CC2)c(O)c1C(=O)/C=C/c1cccc(Cl)c1 [Compound A7, (E)-3-(3-chlorophenyl)-1-(2-hydroxy-4,6-dimethoxy-3-(1-methyl-1,2,3,6-tetrahydropyridine-4-yl)phenyl)-2-propylene-1-one] | 3.24 µM | 182 to 184 °C
COc1cccc(/C=C/C(=O)c2c(OC)cc(OC)c(C3=CCNCC3)c2O)c1OC [Compound B4, (E)-3-(2,3-dimethoxyphenyl)-1-(2-hydroxy-4,6-dimethoxy-3-(1,2,3,6-tetrahydropyridine-4-yl)phenyl)-2-propylene-1-one] | 4.47 µM | 109 to 110 °C
COc1ccc(-c2cc(=O)c3c(OC)cc(OC)c(C4=CCN(C)CC4)c3o2)cc1 [Compound F4, 5,7-dimethoxy-8-(1-methyl-1,2,3,6-tetrahydropyridin-4-yl)-2-(4-methoxyphenyl)-4H-chromen-4-one] | 17.3 µM | 179 to 181 °C
COc1cc(OC)c(C(=O)/C=C/c2ccc(C)cc2)c(O)c1CN1CCOCC1 [Compound D1, (E)-1-(2-hydroxy-4,6-dimethoxy-3-(morpholin-4-ylmethyl)phenyl)-3-(4-methylphenyl)-2-propylene-1-one] | 14.8 µM | 126 to 127 °C
COc1cc(OC)c(C2=CCN(C)CC2)c(O)c1C(=O)/C=C/c1ccc(Cl)cc1 [Compound A12, (E)-3-(4-chlorophenyl)-1-(2-hydroxy-4,6-dimethoxy-3-(1-methyl-1,2,3,6-tetrahydropyridine-4-yl)phenyl)-2-propylene-1-one] | 8.3 µM | 169 to 170 °C
COc1cccc(-c2cc(=O)c3c(OC)cc(OC)c(C4=CCN(C)CC4)c3o2)c1OC [Compound F6, 5,7-dimethoxy-8-(1-methyl-1,2,3,6-tetrahydropyridin-4-yl)-2-(2,3-dimethoxy-phenyl)-4H-chromen-4-one] | 61.3 µM | 195 to 196 °C
COc1cc(OC)c(C2=CCN(C)CC2)c(O)c1C(=O)/C=C/c1ccc(C)cc1 [Compound A9, (E)-1-(2-hydroxy-4,6-dimethoxy-3-(1-methyl-1,2,3,6-tetrahydropyridine-4-yl)phenyl)-3-(4-methylphenyl)-2-propylene-1-one] | 3.87 µM | 150 to 151 °C
COc1cc(OC)c(C2=CCN(C)CC2)c(O)c1C(=O)/C=C/c1ccc(C#N)cc1 [Compound A15, (E)-3-(4-cyanophenyl)-1-(2-hydroxy-4,6-dimethoxy-3-(1-methyl-1,2,3,6-tetrahydropyridine-4-yl)phenyl)-2-propylene-1-one] | 13.3 µM | 125 to 126 °C
COc1ccc(/C=C/C(=O)c2c(OC)cc(OC)c(C3=CCN(C)CC3)c2O)c(OC)c1OC [Compound A16, (E)-1-(2-hydroxy-4,6-dimethoxy-3-(1-methyl-1,2,3,6-tetrahydropyridine-4-yl)phenyl)-3-(2,3-4-trimethoxyphenyl)-2-propylene-1-one] | 3.31 µM | 145 to 147 °C
COc1cc(OC)c2c(=O)cc(-c3ccc(C)cc3)oc2c1C1=CCN(C)CC1 [Compound F3, 5,7-dimethoxy-8-(1-methyl-1,2,3,6-tetrahydropyridin-4-yl)-2-(4-methylphenyl)-4H-chromen-4-one] | 21.1 µM | 113 to 114 °C
COc1cc(OC)c2c(=O)cc(-c3ccc(N(C)C)cc3)oc2c1C1=CCN(C)CC1 [Compound F5, 5,7-dimethoxy-8-(1-methyl-1,2,3,6-tetrahydropyridin-4-yl)-2-(4-(dimethylamino)-phenyl)-4H-chromen-4-one] | 7.71 µM | 148 to 150 °C
COc1ccc(/C=C/C(=O)c2c(OC)cc(OC)c(C3=CCNCC3)c2O)c(OC)c1OC [Compound B16, (E)-1-(2-hydroxy-4,6-dimethoxy-3-(1,2,3,6-tetrahydropyridine-4-yl)phenyl)-3-(2,3,4-trimethoxyphenyl)-2-propylene-1-one] | 5.54 µM | 98 to 100 °C
COc1ccc(-c2cc(=O)c3c(O)cc(O)c(C4=CCN(C)CC4)c3o2)cc1 [Compound G4, 5,7-hydroxy-8-(1-methyl-1,2,3,6-tetrahydropyridin-4-yl)-2-(4-methoxyphenyl)-4H-chromen-4-one] | 3.16 µM | 190 to 191 °C
COc1cc(OC)c(C2=CCN(C)CC2)c(O)c1C(=O)/C=C/c1cccc([N+](=O)[O-])c1 [Compound A8, (E)-1-(2-hydroxy-4,6-dimethoxy-3-(1-methyl-1,2,3,6-tetrahydropyridine-4-yl)phenyl)-3-(3-nitrophenyl)-2-propylene-1-one] | 10.5 µM | 128 to 130 °C
